# How the values were obtained:
# [1] = test system: HEK293 (human embryonic kidney cell line); test: Cytotoxic activity, non-cancerous cell line, resazurin, 72 h; type: cell-based; settings: for IC50: Homo sapiens, HEK293, 72 h, mean ± SEM, n=3
# Description: The cytotoxic potential of selenoesters was tested on several cancer cell lines—HOC (human parental ovarian adenocarcinoma, HOC, A2780, Sigma-Aldrich), HOC/ADR (sub-line resistant to Adriamycin, A2780/ADR, Sigma-Aldrich), MCF-7 (human breast adenocarcinoma, ATCC®, HTB-22TM), MCF-7/PAX (resistant sub-line established by gradual adaptation of parental cells to increased concentration of paclitaxel; kindly provided by Division of Cell and Molecular Biology, Third Faculty of Medicine, Charles University, Czech Republic) and on one non-cancerous cell line—HEK293 (human embryonic kidney cell line, Leibniz Institute, DSMZ-German Collection of Microorganisms and Cell Cultures GmbH). All mentioned cell lines were authenticated using short tandem repeat (STR) profiling. Cell lines were cultivated in DMEM medium (10% FBS, 1× antibiotic antimycotic solution), except for HEK293 cell line which was cultivated without antibiotics. In case of the resistant cell lines, the medium was supplemented with a required concentration of cytostatics to maintain resistance (HOC/ADR—100 nM Adriamycin; MCF-7/PAX—300 nM paclitaxel). All cells were cultivated in a CO2 incubator (5% CO2, 37 °C, Thermo Fisher Scientific).
# For the experiment, the cells at passage number 5–20 were seeded at a 1 × 10^5 cells/mL concentration into 96-well plates to 100 µL final volume. The final concentration range of the compounds was 0.63–20 µM. After an incubation of 72 h, the plates were washed 1× with PBS and resazurin solution (0.03 mg/mL in 1× PBS) was added. After 1 h of incubation, the fluorescence signal was recorded (ex./em. 560/590 nm).
# The selectivity index (SI) was determined as the ratio of IC50 value for the non-cancerous cells to IC50 for the cancer cell line. For resistant cell lines, the collateral sensitivity (CS) was calculated as the ratio of IC50 value in sensitive tumour cells to IC50 in the resistant cancer cell line. In both cases, the selectivity is considered as: (1) strongly selective when SI or CS value is above 6, (2) moderately selective when SI or CS is between 3 and 6, (3) slightly selective when SI or CS is between 1 and 3 and (4) non-selective when SI or CS is less than 1[23].
# [2] = test system: ABC superfamily genes in HOC/ADR; test: Expression of genes encoding ABC transporters, qPCR; type: cell-based, human; settings: IC10 alone, 48 h
# Description: Based on the fact that compounds K3, K4, K7 sensitized drug-resistant cell lines (HOC/ADR, MCF-7/PAX) and modulated ATPase activity of one from the ABC proteins (P-gp), we verified the potential of these compounds to affect ABC superfamily gene expression. The ovarian and breast cancer cell lines (parental cells and resistant sub-line) were analysed for the expression profile of genes encoding the ABC proteins in the previous works[18]–[20]. […] After 48 h, the effect of compounds alone or in the combination with cytostatics was observed (Supplementary Tables 1, Table 2).
# To determine the impact of selected compounds on the expression of genes encoding ABC transporter, HOC/ADR and MCF-7/PAX cells were seeded for 24 h into 5 cm Petri dishes with DMEM medium at the cell density 1 × 10^5 cells/mL. Afterwards, the cells were washed 1× with PBS and new fresh DMEM supplemented with K3, K4, and K7 (in concentration corresponding to their IC10 value) alone or combined with cytostatics (Adriamycin or paclitaxel in concentration corresponding to their IC25 value) was added. In the experiment, positive and negative control was also included (positive—untreated cells, negative—cells treated only with cytostatics). After 48 h exposure, the cells were washed once with PBS and released from the surface by using the above-mentioned trypsin–EDTA procedure. The enzyme reaction was stopped by medium addition and the cells were centrifuged (3200×g; 10 min, 4 °C). The supernatants were removed and before the next centrifugation, the pellets were resuspended in 1.5 mL of cooled PBS (5400×g; 10 min, 4 °C). After the second washing step, the cells were centrifuged another time (10,000×g; 3 min, 4 °C). Subsequently, 1 mL of Trizol (Invitrogen) was added to the pellets and the compounds were stored − 80 °C.
# The RNA concentration of selenoester treated samples was determined using QuantiT RiboGreen RNA Assay Kit and Infinite M200 plate reader (Tecan, Männedor, Switzerland). The cDNA was synthesized from 0.5 µg of total RNA by RevertAid First Strand Synthesis cDNA Kit (MBI Fermentas, Vilnius, Lithuania). To determine the quality of cDNA, the ubiquitin C gene fragment was amplified. The experiment was performed in 384-well block by using ViiA7 Real-Time PCR System (Life Technologies, Camarillo, California, United States). A master mix contained 0.25 µL of 20× TaqMan Gene Expression Assay, 1 µL of 5× HotFIREPol Probe qPCR Mix Plus, 1.75 µL of RNase free water and 2 µL of 8× diluted cDNA. The final reaction volume was 5 µL. The PCR parameters were as follows: initial hold (50 °C for 2 min), denaturation (95 °C for 10 min), followed by 45 cycles (denaturation at 95 °C for 15 s, annealing at 60 °C for 1 min). After each cycle, the fluorescent signal was determined. For each compound, duplicates were analysed and those with a standard deviation higher than 0.5 Ct were re-analysed. A quantitate real-time PCR was followed by MIQE guidelines. To compare the relative transcript levels of genes, the software REST 2009 (Qiagen, Hilden, Germany) was used.
# Table 1. Effect of selenoesters on the expression of genes of the ABC superfamily in Adriamycin-resistant ovarian carcinoma cell line (HOC/ADR).
# Gene expression of ABC transporters were estimated using comercial predesigned Taqman Gene Expression Assays (Life technologies). TaqMan Gene Expression Assays are based on 5´ nuclease chemistry, and each assay contains the primer and probe set for target of interest. Taqman assays IDs and GenBank Accession numbers of reference sequencies identifying their location and amplicon lengths are included in […]. * Relative transcript levels (P-value ) in treated and non-treated cancer cell lines were compared using REST 2009 software.
smiles,measurement,setting,value
CC(=O)C[Se]C(=O)c1ccc(Br)cc1 [K3],IC50,[1],2400 nM
same,ABCA1 Expression Difference,[2],0.968
same,ABCA2 Expression Difference,[2],0.997
same,ABCA3 Expression Difference,[2],0.838
same,ABCA3 Treated vs. Untr.,[2],DOWN
same,ABCA5 Expression Difference,[2],2.693
same,ABCA7 Expression Difference,[2],0.322
same,ABCA7 Treated vs. Untr.,[2],DOWN
same,ABCB1 Expression Difference,[2],3.825
same,ABCB2 Expression Difference,[2],0.315
same,ABCB2 Treated vs. Untr.,[2],DOWN
same,ABCB3 Expression Difference,[2],4.904
same,ABCB6 Expression Difference,[2],4.860
same,ABCB8 Expression Difference,[2],2.659
same,ABCB9 Expression Difference,[2],4.156
same,ABCB10 Expression Difference,[2],7.275
same,ABCC1 Expression Difference,[2],6.415
same,ABCC2 Expression Difference,[2],2.907
same,ABCC5 Expression Difference,[2],2.301
same,ABCC10 Expression Difference,[2],1.562
same,ABCD1 Expression Difference,[2],0.665
same,ABCD1 Treated vs. Untr.,[2],DOWN
same,ABCD2 Expression Difference,[2],1.845
same,ABCD3 Expression Difference,[2],2.960
same,ABCD4 Expression Difference,[2],2.760
same,ABCE1 Expression Difference,[2],7.298
same,ABCF1 Expression Difference,[2],1.638
same,ABCF2 Expression Difference,[2],2.868
same,ABCF3 Expression Difference,[2],2.163
same,ABCG1 Expression Difference,[2],0.932
same,ABCG2 Expression Difference,[2],1.869
same,ABCG4 Expression Difference,[2],0.755
same,ABCG4 Treated vs. Untr.,[2],DOWN
CC(=O)C[Se]C(=O)c1ccccc1C(F)(F)F [K4],IC50,[1],5400 ± 400 nM
same,selectivity indexes between HEK293 and cancer cell lines,[1]; all cancer cell lines tested,highest selectivity
same,ABCA1 Expression Difference,[2],1.347
same,ABCA2 Expression Difference,[2],0.948
same,ABCA3 Expression Difference,[2],0.832
same,ABCA3 Treated vs. Untr.,[2],DOWN
same,ABCA5 Expression Difference,[2],2.334
same,ABCA7 Expression Difference,[2],0.359
same,ABCA7 Treated vs. Untr.,[2],DOWN
same,ABCB1 Expression Difference,[2],3.696
same,ABCB2 Expression Difference,[2],0.435
same,ABCB2 Treated vs. Untr.,[2],DOWN
same,ABCB3 Expression Difference,[2],4.568
same,ABCB6 Expression Difference,[2],5.132
same,ABCB7 Expression Difference,[2],7.250
same,ABCB8 Expression Difference,[2],3.526
same,ABCB9 Expression Difference,[2],4.981
same,ABCB10 Expression Difference,[2],8.165
same,ABCC1 Expression Difference,[2],8.545
same,ABCC2 Expression Difference,[2],3.272
same,ABCC5 Expression Difference,[2],2.336
same,ABCC10 Expression Difference,[2],1.545
same,ABCD1 Expression Difference,[2],0.796
same,ABCD1 Treated vs. Untr.,[2],DOWN
same,ABCD2 Expression Difference,[2],4.885
same,ABCD3 Expression Difference,[2],3.302
same,ABCD4 Expression Difference,[2],2.681
same,ABCE1 Expression Difference,[2],6.945
same,ABCF1 Expression Difference,[2],1.998
same,ABCF2 Expression Difference,[2],3.096
same,ABCF3 Expression Difference,[2],2.262
same,ABCG1 Expression Difference,[2],1.213
same,ABCG2 Expression Difference,[2],1.302
same,ABCG4 Expression Difference,[2],0.776
same,ABCG4 Treated vs. Untr.,[2],DOWN
CC(=O)C[Se]C(=O)c1ccc(C(C)(C)C)cc1 [K7],IC50,[1],1500 ± 100 nM
same,ABCA1 Expression Difference,[2],1.104
same,ABCA2 Expression Difference,[2],1.775
same,ABCA3 Expression Difference,[2],1.018
same,ABCA5 Expression Difference,[2],1.970
same,ABCA7 Expression Difference,[2],0.341
same,ABCA7 Treated vs. Untr.,[2],DOWN
same,ABCB1 Expression Difference,[2],5.009
same,ABCB2 Expression Difference,[2],0.591
same,ABCB2 Treated vs. Untr.,[2],DOWN
same,ABCB3 Expression Difference,[2],3.406
same,ABCB6 Expression Difference,[2],4.646
same,ABCB7 Expression Difference,[2],7.145
same,ABCB8 Expression Difference,[2],3.581
same,ABCB9 Expression Difference,[2],4.530
same,ABCB10 Expression Difference,[2],7.288
same,ABCC1 Expression Difference,[2],7.835
same,ABCC2 Expression Difference,[2],3.865
same,ABCC5 Expression Difference,[2],3.327
same,ABCC10 Expression Difference,[2],1.899
same,ABCD1 Expression Difference,[2],0.898
same,ABCD1 Treated vs. Untr.,[2],DOWN
same,ABCD2 Expression Difference,[2],0.638
same,ABCD2 Treated vs. Untr.,[2],DOWN
same,ABCD3 Expression Difference,[2],4.007
same,ABCD4 Expression Difference,[2],3.541
same,ABCE1 Expression Difference,[2],10.154
same,ABCF1 Expression Difference,[2],2.212
same,ABCF2 Expression Difference,[2],4.029
same,ABCF3 Expression Difference,[2],3.001
same,ABCG1 Expression Difference,[2],1.059
same,ABCG2 Expression Difference,[2],1.468
same,ABCG4 Expression Difference,[2],1.431

# — publication PMC9023544, “Ketone-selenoesters as potential anticancer and multidrug resistance modulation agents in 2D and 3D ovarian and breast cancer in vitro models” (Scientific Reports, 2022)
